# Tests used:
# [1] = Caco-2 cell permeability assay (A-B and B-A); type: in vitro ADME; settings: human; for Papp A→B at 60 min, 10 μM: A-B direction; for Papp B→A at 40 min, 10 μM: B-A direction
# Procedure: The following procedure was used to determine the ability of a test compound to cross Caco-2 cells (human intestinal epithelial cells derived from a colorectal adenocarcinoma). The cells were seeded at 1×10^5 cells/cm^2 in 96-well Multiscreen™ plates (Millipore). Permeability assays were performed with the cells at days 21-25 post-seeding. Cells are typically used for 15 consecutive passages in culture.
# This assay can be performed in either the apical to basolateral (A−B) or basolateral to apical (B−A) direction. The test compound was prepared at 10 μM in HBSS-MES (pH 6.5) or HBSS-HEPES (pH 7.4) with a final DMSO concentration of 1%. The working solution was then centrifuged and the supernatant added to the donor side. The assay plate was incubated at 37° C. with gentle shaking for 60 min or 40 min for the A−B or B−A assay, respectively. Samples were aliquoted from the donor side at time zero and the end point, and from the receiver side at the end point.
# Reference compounds, propranolol (highly permeable), labetalol (moderately permeable), ranitidine (poorly permeable), and colchicine (P-glycoprotein substrate) were included in each assay.
# Samples are analyzed by HPLC-MS/MS using selected reaction monitoring. The HPLC system consists of a binary LC pump with autosampler, a C-18 column, and a gradient.
# The apparent permeability coefficient (Papp) of the test compound (Equation 2) and its recovery (Equation 3) are calculated as follows: […]
# wherein A is the surface area of the cell monolayer (0.11 cm^2), C is concentration of the test compound expressed as peak area, D denotes donor, and R is receiver. “0”, “mid,” and “end” denote time at zero, mid-point, and end of the incubation, respectively. At is the incubation time. V is the volume of the donor or receiver.
# This is most likely due to non-specific binding or degradation.
# [2] = Aqueous solubility in PBS pH 7.4; type: physicochemical; settings: phosphate buffered saline, aqueous buffer, kinetic from dmso stock, PBS pH 7.4, room temperature
# Procedure: The following procedure was used to determine the aqueous solubility of a test compound in phosphate buffered saline (PBS—NaCl 137 mM, KCl 2.7 mM, Na2HPO4 8.1 mM, KH2PO4 1.5 mM, pH 7.4) in 96-well plate format by HPLC-UV/VIS analysis. The test compound was prepared at 200 μM in PBS from a 10 mM DMSO stock solution. The final DMSO concentration was 2%. The PBS buffer samples were mixed thoroughly followed by incubation at room temperature for 24 h. At the end of the incubation, the PBS buffer samples were centrifuged and supernatants analyzed by HPLC. The aqueous solubility (μM) of the test compound in PBS was determined by comparing the peak area of the principal peak in the calibration standard (200 μM) with the peak area of the corresponding peak in each of the PBS samples. The range of the assay was approximately 0.5 μM to 200 μM. The reference compounds used in each assay were metoprolol, rifampicin, ketoconazole, phenytoin, haloperidol, simvastatin, diethylstilbestrol, and tamoxifen ranking from fully soluble (200 μM) to poorly soluble (<1 μM).
# [3] = Plasma protein binding by equilibrium dialysis; type: in vitro ADME; settings: both sexes, pooled plasma, pH 7.4, human plasma protein binding, read-out: PPB
# Procedure: The following procedure was used to determine the plasma protein binding of a test compound in pooled plasma from human (mixed gender) via equilibrium dialysis in a 96-well plate format. The dialysate compartment was loaded with phosphate-buffered saline (pH 7.4) and the sample side was loaded with plasma spiked with the test compound at a concentration of 10 μM. After loading, samples were covered and incubated for 4 hours at 37° C. After incubation, each compartment was sampled, diluted with acetonitrile/buffer and centrifuged. The supernatants were analyzed by HPLC-MS/MS. The analyte peak areas obtained from HPLC-MS/MS analysis of each sample were used to calculate protein binding according to the following equation (Equation 4):
# where: AREAp=Peak area of analyte in protein matrix; AREAb=Peak area of analyte in buffer. The amount measured in the plasma compartment included both free and bound drug, while that on the buffer side represented free drug only; the differences were used to calculate the percentage plasma protein bound. Three reference compounds were tested in each assay: acebutolol, quinidine and warfarin.
# human Factor XIa = human Factor XIa (Homo sapiens, UniProt P03951); assay: Factor XIa enzyme inhibition assay (dose response, fluorogenic AMC substrate); type: biochemical; parameters: Enzyme: Factor XIa; settings: purified enzyme; substrate 50 μM, enzyme 0.25 nM; read-out: hFXIa IC50
# Outline: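 Fluorogenic assay in 20 mM Hepes pH 7.4, 150 mM NaCl, 0.02% Tween 20 with 0.25 nM enzyme and 50 μM Glp-Pro-Arg-AMC (final). Fluorescence read every minute for 30 min at 30 °C after serial two-fold compound dilution; IC50 from four-parameter Hill fit of dose-response curves.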
# Factor Xa = biological target: T1, Factor Xa (Homo sapiens, UniProt P00742); assay: Dose response assay for protease inhibitors: Factor Xa; type: biochemical; settings: ratio versus Factor XIa
# T1 construct: Factor Xa; 0.2 μM in 50% glycerol (9.2 μg/mL)
# Procedure: (§1) • Assay buffer: 20 mM Hepes, pH 7.4; 150 mM NaCl; 0.02% Tween 20 • Compounds: 10 mM stocks in DMSO • Substrate: 20 mM Glp-Pro-Arg-AMC, 25 mg/2.3 mL H2O (store at +4° C.) [Factor XIa, thrombin, and trypsin] • 20 mM Pro-Phe-Arg-AMC (Bachem I-1295), 25 mg/2.2 mL H2O or Boc-Leu-Gly-Arg-AMC (Bachem I-1105), 25 mg/2.07 mL H2O (store at +4° C.) [Factor Xa] • Enzyme: Factor XIa; 0.25 M in 50% glycerol (20 μg/mL) • Trypsin; 0.2 μM in 50% glycerol (4.8 μg/mL) • Thrombin; 0.2 μM in 50% glycerol (7.34 μg/mL) • Factor Xa; 0.2 μM in 50% glycerol (9.2 μg/mL)
# (§2) • 1. Dilute the substrate to 100 μM in assay buffer (30 μL/6 mL). The enzyme is diluted to 0.5 nM just prior to use (12 L/6 mL for Factor XIa; 15 μL/6 mL for all of the rest.) • 2. Pipette 50 μL of substrate into each well of the 96 well (12×8) microtiter plate. (Column 1 is used as the 100% activity control and receives no compound, and Column 12 is the blank and receives no enzyme.) Add an additional 46 μL to column 2. • 3. Pipette 4 μL of each compound into the appropriate well in column 2 of the plate (unknowns assayed in triplicate, standard assayed in duplicate). The final compound concentration will be 1/50th of the stock. • 4. Serially two-fold dilute the compound by mixing the sample in column 2, removing 50 μL to the next well (column 3), mix and remove to column 4, etc. until column 11. After mixing column 11, remove 50 μL and discard. • 5. Pipette 50 μL of buffer into column 12. Initiate the reaction by adding 50 μL of enzyme solution to each well of columns 1-11 as rapidly as possible. • 6. Read the plate in a spectrophotometer (SpectraMax) at 30° C., wherein each well is measured every 60 s for 30 min. For Factor Xa assays, each well is measured every 1 min for a total of 60 min. • 7. For Factor XIa assays, the compounds are assayed, in duplicate, at 3 different starting concentrations, 20, 2, and 0.2 μM; 1:10, 1:100, and 1:1000 dilution of 10 mM stock or at 2, 0.2, and 0.02 μM; 1:100, 1:1000, and 1:10,000 dilution of 10 mM stock. Data for each concentration are combined for graphing and data fitting. • 8. Data can be used both for estimation of IC50 and for estimation of Kon.
# Thrombin = biological target: T2, Thrombin (Homo sapiens, UniProt P00734); assay: Dose response assay for protease inhibitors: thrombin; type: biochemical; settings: ratio versus Factor XIa
# T2 construct: Thrombin; 0.2 μM in 50% glycerol (7.34 μg/mL)
# Procedure: as §1, §2
# Trypsin = biological target: T3, Trypsin (Bos taurus, UniProt P00760); assay: Dose response assay for protease inhibitors: trypsin; type: biochemical; settings: ratio versus Factor XIa
# T3 construct: gene PRSS1
# T3 sequence (P00760 24-246): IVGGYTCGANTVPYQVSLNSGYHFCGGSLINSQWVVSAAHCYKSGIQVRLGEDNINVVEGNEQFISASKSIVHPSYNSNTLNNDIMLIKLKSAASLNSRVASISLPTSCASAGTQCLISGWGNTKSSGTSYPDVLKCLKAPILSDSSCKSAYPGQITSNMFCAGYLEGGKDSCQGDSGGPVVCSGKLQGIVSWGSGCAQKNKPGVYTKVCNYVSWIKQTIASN
# Procedure: as §1, §2
# T1 sequence (P00742 235-488 limits assumed): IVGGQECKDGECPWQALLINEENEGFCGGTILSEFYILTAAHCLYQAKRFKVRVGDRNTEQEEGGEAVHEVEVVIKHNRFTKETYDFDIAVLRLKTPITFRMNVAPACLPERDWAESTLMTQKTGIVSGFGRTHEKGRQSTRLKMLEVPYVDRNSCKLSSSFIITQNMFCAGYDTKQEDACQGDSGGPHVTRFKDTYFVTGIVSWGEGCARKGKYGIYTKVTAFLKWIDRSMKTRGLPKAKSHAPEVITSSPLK
# T1 sequence (P00742 41-179 partner limits assumed): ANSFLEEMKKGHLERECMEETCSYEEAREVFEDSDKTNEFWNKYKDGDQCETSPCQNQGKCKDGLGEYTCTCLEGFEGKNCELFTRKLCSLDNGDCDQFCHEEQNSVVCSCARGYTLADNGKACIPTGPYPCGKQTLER
# human Factor XIa, sequence (P03951 388-625 limits assumed): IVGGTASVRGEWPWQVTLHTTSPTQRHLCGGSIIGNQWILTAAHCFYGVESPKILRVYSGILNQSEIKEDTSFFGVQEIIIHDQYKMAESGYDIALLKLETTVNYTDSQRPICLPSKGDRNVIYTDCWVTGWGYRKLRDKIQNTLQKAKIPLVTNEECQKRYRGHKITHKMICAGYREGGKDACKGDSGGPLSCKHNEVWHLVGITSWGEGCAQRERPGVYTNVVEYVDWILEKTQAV
# human Factor XIa, sequence (P03951 19-387 partner limits assumed): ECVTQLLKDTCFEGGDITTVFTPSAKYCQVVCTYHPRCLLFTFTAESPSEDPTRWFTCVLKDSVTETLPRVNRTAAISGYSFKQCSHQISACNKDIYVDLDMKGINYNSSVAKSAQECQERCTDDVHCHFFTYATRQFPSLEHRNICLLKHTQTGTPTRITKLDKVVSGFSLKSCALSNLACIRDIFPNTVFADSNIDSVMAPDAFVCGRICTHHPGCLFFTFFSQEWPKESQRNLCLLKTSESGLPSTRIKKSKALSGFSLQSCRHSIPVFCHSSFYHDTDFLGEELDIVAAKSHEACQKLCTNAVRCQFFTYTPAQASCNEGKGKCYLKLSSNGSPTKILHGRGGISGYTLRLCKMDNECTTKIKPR
Compound,"Papp A→B at 60 min, 10 μM [1]","Papp B→A at 40 min, 10 μM [1]",solubility at 24 h [2],"fraction unbound at 4 h, 10 μM [3]",IC50 (human Factor XIa),FXa/FXIa (selectivity ratio) (Factor Xa),Ratio: Thrombin/FXIa (Thrombin),Ratio: Trypsin/FXIa (Trypsin)
CN(C(=O)[C@@H]1[C@@H](Cc2ccnc(N)c2)C(=O)N1C(=O)N[C@@H](C1CCCCC1)C(F)(F)F)c1cc(Cl)cc(Cl)c1 [Compound 23],≤ 10 ×10⁻⁶ cm/s,≤ 10 ×10⁻⁶ cm/s,≤ 10 µM,< 0.05,10 to 100 nM,,,
CC[C@@H](NC(=O)N1C(=O)[C@H](Cc2ccnc(N)c2)[C@H]1C(=O)N(C)c1cccc(OC)c1)C1CCCCC1 [Compound 28],11 to 30 ×10⁻⁶ cm/s,≤ 10 ×10⁻⁶ cm/s,,,< 10 nM,H (“H” indicates 101-1000),G (“G” indicates 1-100),G (“G” indicates 1-100)
CC[C@@H](NC(=O)N1C(=O)[C@H](Cc2ccnc(N)c2)[C@H]1C(=O)N(CC)c1cccc(Cl)c1)C1CCCCC1 [Compound 32],≤ 10 ×10⁻⁶ cm/s,≤ 10 ×10⁻⁶ cm/s,,,< 10 nM,H (“H” indicates 101-1000),G (“G” indicates 1-100),G (“G” indicates 1-100)
CC[C@@H](NC(=O)N1C(=O)[C@H](Cc2ccnc(N)c2)[C@H]1C(=O)N(C)c1ncccn1)C1CCCCC1 [Compound 37],11 to 30 ×10⁻⁶ cm/s,11 to 30 ×10⁻⁶ cm/s,,,< 10 nM,I (“I” indicates >500),I (“I” indicates >500),G (“G” indicates 1-100)
CC[C@H](c1cccc(Cl)c1)N(C)C(=O)N1C(=O)[C@H](Cc2ccnc(N)c2)[C@H]1C(=O)N(C)c1ccncc1 [Compound 113],≤ 10 ×10⁻⁶ cm/s,11 to 30 ×10⁻⁶ cm/s,,,< 10 nM,I (“I” indicates >500),H (“H” indicates 101-1000),G (“G” indicates 1-100)
CC[C@@H](NC(=O)N1C(=O)[C@H](Cc2ccnc(N)c2)[C@H]1C(=O)N(C)c1ccccc1)c1cccc(Cl)c1 [Compound 115],11 to 30 ×10⁻⁶ cm/s,≤ 10 ×10⁻⁶ cm/s,,,< 10 nM,H (“H” indicates 101-1000),H (“H” indicates 101-1000),G (“G” indicates 1-100)
CC[C@@H](NC(=O)N1C(=O)[C@H](Cc2ccnc(N)c2)[C@H]1C(=O)N(C)c1ccnc(C)c1)c1cccc(Cl)c1 [Compound 124],,,,,< 10 nM,H (“H” indicates 101-1000),G (“G” indicates 1-100),G (“G” indicates 1-100)
CC[C@@H](NC(=O)N1C(=O)[C@H](Cc2cc(C)nc(N)c2)[C@H]1C(=O)N(C)c1ncccn1)c1cccc(Cl)c1 [Compound 135],,,,,< 10 nM,I (“I” indicates >500),H (“H” indicates 101-1000),G (“G” indicates 1-100)
CN(C(=O)[C@@H]1[C@@H](Cc2ccnc(N)c2)C(=O)N1C(=O)N[C@@H](C1CCCCC1)C(F)(F)F)c1cccc(Cl)c1 [Example 11],≤ 10 ×10⁻⁶ cm/s,≤ 10 ×10⁻⁶ cm/s,10 to 100 µM,< 0.05,,,,

# Source: US20190315711A1 (eXIthera Pharmaceuticals, Inc., priority 2016, published 2019)
